According to PMC4109918, “Design, Synthesis and Pharmacological Evaluation of Novel Vanadium-Containing Complexes as Antidiabetic Agents” (PLoS ONE, 2014):
Like-named read-outs stand apart in the source and are kept apart here.

Assays:
FFAs = conditions: hypoglycemic activity, File S1, cited from earlier work
[1] = set-up: method as in PMID 12888267; conditions: cited from earlier work
[2] = test system: free fatty acids released in adipocytes; experiment: Insulin-mimetic action: inhibition of free fatty acid release from epinephrine-stimulated adipocytes; type: cell-based; conditions: rat adipocytes, 30 min with compound at 37°C, then 3 hours with epinephrine; 50% inhibition of FFA release; read-out: IC50 exp (±S.D.) (FFAs)
Experimental: All rats (250–300 g) and mice (22–25 g) were housed in a temperature controlled room (24°C±1°C) and they had received standard food pellets and tap water […]. At the end of the study (24 h after CIN induction), all animal test subjects were euthanized by inhalation of ether anesthesia. Rat adipocytes were prepared from the fat pads of male Wistar rats by collagenase digestion according to the method of Rodbell. Freshly prepared adipocytes were incubated (37°C, 30 min) with solutions of the vanadium compounds at three concentrations (0.1, 0.5 and 1 mM in isotonic saline and 5 mM glucose), followed by 3 hours of incubation with epinephrine. The inhibitory effect was determined in terms of the decrease of the amount free fatty acids released in adipocytes. All assays were performed in duplicate or triplicate. […] Investigations were carried out on mongrel white mice.

[3] = test system: adrenaline hyperglycemia in mongrel white mice; experiment: In vivo hypoglycemic activity in the adrenaline hyperglycemia model; conditions: oral, 1/10 of the LD50, 1 hour prior to epinephrine hydrochloride 1 mg/kg s.c.
Experimental: Determination of hypoglycemic activity of 5 complexes was performed on 75 mice. Adrenaline hyperglycemia was caused by subcutaneous administration of 0.1% epinephrine hydrochloride (AGH) at a dose of 1 mg/kg. […] In each experimental group there were 3 animals and 3 replicates were performed. The content of glucose in whole blood was determined at 0.5, 1 and 2 hours after administration of AGH or glucose using portable glucose monitoring systems, OneTouch Ultra test strip and OneTouch Ultra and Clever check TD4209 and strips Clever check TD4209.

rat = experiment: Acute toxicity study, rapid method of Prozorovskii (LD50); type: in vivo; set-up: LD50exp: unit not given here; conditions: for LD50exp: range in brackets; for Class in AD (experimental toxicity class): rat, in vivo
Experimental: Acute toxicity studies were carried out by rapid method of Prozorovskii. […] The following criteria were used for the evaluation of acute toxicity: the number of dead animals, the timing of their death, LD50 through the night, the picture of intoxication, behavioral change and autopsy results of the survived animals after 14 days. Clinical examination was performed for each animal during the first hour after administration of the substance, and weekly thereafter. Clinical examination included a detailed inspection of the animal in cage, in hands and in the open area. The manifestation and severity of intoxication were noted. Examination of animals in order to identify mortality or signs of variations in health status was conducted on a daily basis. Integrated indicators were assessed weekly during the entire period of observation. Death of animals was recorded daily during entire study period. General condition and behavior of animals as well as type of toxic manifestations, including their development and termination were recorded daily during the procedures for monitoring and inspection of individual animals.

Compound: Cc1occc(=O)c1[O-].Cc1occc(=O)c1[O-].[O]=[V+2] [BMOV, bis(maltolato)oxovanadium(IV)]
- IC50 (FFAs; ref 5 (Sakurai et al. 2010)): 0.676 mM
- LD50 [1]: 220 mg/kg

Compound: O.O.O.O.O.O.O.O.[Na+].[O]=[V-]12([O][O]1)[O][O]2.c1ccc(-c2ccccn2)nc1 [Complex I, Sodium(2,2′-Bipyridyl) oxo-diperoxovanadate(V) octahydrate]
- IC50 [2]: 720 ± 90 µM
- decreasing blood glucose level [3]: 50%
- LD50exp (rat): 108(95–122)
- Class in AD (experimental toxicity class) (rat): 3

Compound: CC(=O)/C=C(/C)[O-].CC(=O)/C=C(/C)[O-].[O]=[V+2] [Complex II, Bis(acetylacetonato)oxo-vanadium(IV)]
- IC50 [2]: 950 ± 90 µM

Compound: CC(C)(C)OC(=O)[N-]C(=N)N.CC(C)(C)OC(=O)[N-]C(=N)N.[O]=[V+2] [Complex III, Bis{tert-butyl[amino(imino)methyl]carbamato} oxovanadium (IV)]
- IC50 [2]: 540 ± 70 µM
- decreasing blood glucose level [3]: 42%
- LD50exp (rat): 190(170–210)
- Class in AD (experimental toxicity class) (rat): 3

Compound: O=C([O-])C([O-])C([O-])C(=O)[O-].O=C([O-])C([O-])C([O-])C(=O)[O-].[K+].[K+].[K+].[K+].[O]=[V+2].[O]=[V+2] (stereo not drawn) [Complex IV, Potassium bis((m2-d,d-tartrato-O,O′,O′′,O′′′)-oxo-vanadium(IV)) dihydrate]
- IC50 [2]: 950 ± 100 µM

Compound: O=C1[O][V+4]2(=[O])([O]C(=O)c3c(O)ccc[n+]32)[n+]2cccc(O)c21 [VO(3hpa)2]
- IC50 (FFAs; ref 1 (Sakurai, Yasui 2003)): 0.47 mM

Compound: Cc1ccc[n+]2c1C(=O)[O][V+4]21(=[O])[O]C(=O)c2c(C)ccc[n+]21 [VO(3mpa)2]
- IC50 (FFAs; ref 3 (Sakurai et al. 2000)): 0.66 mM

Compound: O=C1[O][V+4]2(=[O])([O]C(=O)c3cc(Cl)cc[n+]32)[n+]2ccc(Cl)cc21 [VO(4clpa)2]
- IC50 (FFAs; ref 3 (Sakurai et al. 2000)): 0.7 mM

Compound: O=C1[O][V+4]2(=[O])([O]C(=O)c3ccc(I)c[n+]32)[n+]2cc(I)ccc21 [VO(5ipa)2]
- IC50 (FFAs; ref 3 (Sakurai et al. 2000)): 0.45 mM

Compound: CCc1cccc2[n+]1[V+4]1(=[O])([O]C2=O)[O]C(=O)c2cccc(CC)[n+]21 [VO(6epa)2]
- IC50 (FFAs; ref 4 (Sasagawa et al. 2002)): 0.81 mM

Compound: O=C1[O][V+4]2(=[O])([O]C(=O)c3cccc(O)[n+]32)[n+]2c(O)cccc21 [VO(6hpa)2]
- IC50 (FFAs; ref 1 (Sakurai, Yasui 2003)): 0.8 mM

Compound: Cc1cccc2[n+]1[V+4]1(=[O])([O]C2=O)[O]C(=O)c2cccc(C)[n+]21 [VO(6mpa)2]
- IC50 (FFAs; ref 3 (Sakurai et al. 2000)): 0.49 mM

Compound: CCCCCC1=C2[O][V+4]3(=[O])([O]C4=C(CCCCC)OC(C)=C(OC)C4=[O+]3)[O+]=C2C(OC)=C(C)O1 [VO(alx)2]
- IC50 (FFAs; ref 5 (Sakurai et al. 2010)): 0.553 mM

Compound: [O]=[V+4]12([O][n+]3ccccc3[S]1)[O][n+]1ccccc1[S]2 [VO(opt)2]
- IC50 (FFAs; ref 6 (Sakurai et al. 1999)): 0.19 mM

Compound: O=C1[O][V+4]2(=[O])([O]C(=O)c3cccc[n+]32)[n+]2ccccc21 [VO(pic)2]
- IC50 (FFAs; ref 3 (Sakurai et al. 2000)): 0.59 mM

Compound: O=S(=O)([O-])[O-].[O]=[V+2] [VOSO4, Vanadyl sulfate]
- IC50 [2]: 1000 ± 90 µM
- decreasing blood glucose level [3]: 16%
- LD50exp (rat): 448(356–540)
- Class in AD (experimental toxicity class) (rat): 3
- IC50 (FFAs; ref 1 (Sakurai, Yasui 2003)): 0.84 mM

Compound: Cc1cccc2[n+]1[Zn+2]1([O]C2=O)[O]C(=O)c2cccc(C)[n+]21 [Zn(6mpa)2]
- IC50 (FFAs; ref 7 (Yoshikawa et al. 2002)): 0.31 mM

Compound: O=C[C@@H]1CC(=O)[NH][Zn@@+2]2([NH]C(=O)C[C@H](C=O)[NH]2)[NH]1 [Zn(L-Asn)2]
- IC50 (FFAs; ref 8 (Yoshikawa et al. 2001)): 0.65 mM

Compound: O=C[C@H]1CCC[N]1[Zn+2][N]1CCC[C@@H]1C=O [Zn(L-Pro)2]
- IC50 (FFAs; ref 8 (Yoshikawa et al. 2001)): 0.89 mM

Compound: C[C@@H](O)[C@H]1[NH][Zn+2]2([NH][C@H]([C@@H](C)O)C(=O)[O]2)[O]C1=O [Zn(L-Thr)2]
- IC50 (FFAs; ref 8 (Yoshikawa et al. 2001)): 0.54 mM

Compound: CC(C)[C@H](C=O)[NH][Zn+2][NH][C@H](C=O)C(C)C [Zn(L-Val)2]
- IC50 (FFAs; ref 8 (Yoshikawa et al. 2001)): 0.77 mM

Compound: Cc1occc(=O)c1[O][Zn+2][O]c1c(C)occc1=O [Zn(maltolat)2]
- IC50 (FFAs; ref 7 (Yoshikawa et al. 2002)): 0.59 mM

Compound: O=C1[O][Zn+2]2([O]C(=O)c3cccc[n+]32)[n+]2ccccc21 [Zn(pic)2]
- IC50 (FFAs; ref 7 (Yoshikawa et al. 2002)): 0.64 mM

Compound: O=S1(=O)[O][Zn+2][O]1 [ZnSO4]
- IC50 (FFAs; ref 8 (Yoshikawa et al. 2001)): 0.81 mM

Compound: O=S(=O)(O)[O][V+4]123(=[O])[O]c4ccccc4C[N+]1(Cc1cccc[n+]12)Cc1cccc[n+]13 (stereo not drawn) [[VIVO(bp-O)HSO4]]
- IC50 (FFAs; ref 9 (Nilsson et al. 2009)): 3.85 mM

Compound: COC(=O)[C@@H](Cc1c[nH]c2ccccc12)NC(=O)c1ccc2[n+](c1)[V+4]1(=[O])([O]C2=O)[O]C(=O)c2ccc(C(=O)N[C@H](Cc3c[nH]c4ccccc34)C(=O)OC)c[n+]21 [[VIVO(pic-trpMe)2]]
- IC50 (FFAs; ref 9 (Nilsson et al. 2009)): 0.41 mM

Compound: O=S(=O)([O-])[O-].[O]=[V+2].c1ccc(CN(Cc2ccccn2)Cc2ccccn2)nc1 [[VIVO(tpa)SO4]]
- IC50 (FFAs; ref 9 (Nilsson et al. 2009)): 4.6 mM

Compound: O=C(N[C@H](Cc1c[nH]c2ccccc12)C(=O)O)c1ccc2[n+](c1)[V+4]1(=[O])([O]C2=O)[n+]2ccccc2C[N+]1(Cc1ccccn1)Cc1ccccn1 [[VVO(pic-trpH)tpa]2+]
- IC50 (FFAs; ref 9 (Nilsson et al. 2009)): 1.84 mM

Compound: [O]=[V+4]12([O]C3=COC=C[C@@H]3[O]1)[O]C1=COC=C[C@H]1[O]2 [bis(3-hydroxy-4-pyronato)oxovanadium(IV)]
- IC50 (FFAs; ref 2 (Sakurai et al. 2008)): 1.18 mM

Compound: CCC1=C2[O][V+4]3(=[O])([O]C4=C(CC)OC=C[C@@H]4[O]3)[O][C@H]2C=CO1 [bis(ethylmaltolato)oxovanadium(IV)]
- IC50 (FFAs; ref 5 (Sakurai et al. 2010)): 0.632 mM

Compound: (S)-[2-(N-salicylidene) amino-propionate] oxovanadium(IV) monohydrate [Complex V]
- IC50 [2]: 810 ± 60 µM
- decreasing blood glucose level [3]: 26%
- LD50exp (rat): 245(210–280)
- Class in AD (experimental toxicity class) (rat): 3
